This is an account of results in ChEMBL document CHEMBL1148996, “6-Methoxylated and C-glycosyl flavonoids from Centaurea species” (1984).

What all share (type): functional
Test [1] concerns Escherichia coli. Description: Antimicrobial activity against Escherichia coli ATCC 8739 by paper disk method.
Test [2] deals with Pseudomonas aeruginosa. Kind of test: Antimicrobial activity against Pseudomonas aeruginosa ATCC 1539 by paper disk method.
Test [3] relates to Bacillus subtilis. Description: Antimicrobial activity against Bacillus subtilis ATCC 6633 by paper disk method.
Test [4] deals with Proteus vulgaris. Kind of test: Antimicrobial activity against Proteus vulgaris ATCC 8427 by paper disk method.
Test [5] relates to Klebsiella pneumoniae. Description: Antimicrobial activity against Klebsiella pneumoniae UJ57 by paper disk method.

Values after ≈ are worked out from the molar mass of the structure shown.

What is called MBC is the smallest concentration meeting the test's criterion for killing. Usually MIC stands for the lowest concentration that inhibits growth of the organism. In test [1], `COc1ccc(-c2cc(=O)c3c(O)c(OC)c(OC)cc3o2)cc1OC` came in with an MBC of 500 µg/mL (≈ 1400 µM) and a minimum inhibitory concentration (MIC) of 250 µg/mL (≈ 698 µM). In addition, in test [2], the MBC was 250 µg/mL (≈ 698 µM) and the MIC came out at 125 µg/mL (≈ 349 µM).
Turning to `O=c1cc(-c2ccc(O)cc2)oc2cc(O)cc(O)c12` [APIGENIN], the MBC in test [3] turned out to be 219 µg/mL (≈ 810 µM); in test [1], 438 µg/mL (≈ 1620 µM); in test [2], 438 µg/mL (≈ 1620 µM); in test [4], 438 µg/mL (≈ 1620 µM); in test [5] it was 438 µg/mL (≈ 1620 µM). Moreover, the minimal inhibitory concentration (MIC) in test [3] worked out at 110 µg/mL (≈ 405 µM); in test [1], 110 µg/mL (≈ 405 µM); in test [2] it was 110 µg/mL (≈ 405 µM); in test [4], 54.8 µg/mL (≈ 203 µM); in test [5] it was 219 µg/mL (≈ 810 µM).
In test [3], `COc1ccc(-c2cc(=O)c3c(O)c(OC)c(OC)cc3o2)cc1O` [EUPATORIN] came in with a minimal bactericidal concentration (MBC) of 188 µg/mL (≈ 545 µM) and a minimal inhibitory concentration (MIC) of 93.8 µg/mL (≈ 272 µM). In test [1], this molecule returned an MBC above 375 µg/mL and a minimum inhibitory concentration (MIC) of 188 µg/mL (≈ 545 µM).
In test [3], `COc1c(O)cc2oc(-c3ccc(O)cc3)cc(=O)c2c1O` [HISPIDULIN] returned an MBC above 250 µg/mL and a minimum inhibitory concentration (MIC) of 125 µg/mL (≈ 416 µM). In test [4], the minimum bactericidal concentration (MBC) was above 250 µg/mL and the lowest concentration to inhibit growth (MIC) was 125 µg/mL (≈ 416 µM).
In test [1], `COc1cc(-c2cc(=O)c3c(O)c(OC)c(O)cc3o2)ccc1O` [JACEOSIDINE] yielded a minimal bactericidal concentration (MBC) of 250 µg/mL (≈ 757 µM) and an MIC of 125 µg/mL (≈ 378 µM).
